Experimental data: article PMC7265341, “Quantifying CDK inhibitor selectivity in live cells” (Nature Communications, 2020)
Where two headings read alike, the source gives them in different places.

Legend:
[1] = molecular target: CDK3/Cyclin E1 (Homo sapiens, UniProt Q00526); assay: NanoBRET live-cell target engagement, CDK3-NanoLuc/Cyclin E1 in HEK-293; format: binding; conditions: CDK3/E1, 10µM
[2] = molecular target: CDK4/Cyclin D1 (Homo sapiens, UniProt P11802); assay: NanoBRET live-cell target engagement, NanoLuc-CDK4/Cyclin D1 in HEK-293; format: binding; conditions: CDK4/D1, 10µM
Chain of CDK4/Cyclin D1 (P11802 whole entry): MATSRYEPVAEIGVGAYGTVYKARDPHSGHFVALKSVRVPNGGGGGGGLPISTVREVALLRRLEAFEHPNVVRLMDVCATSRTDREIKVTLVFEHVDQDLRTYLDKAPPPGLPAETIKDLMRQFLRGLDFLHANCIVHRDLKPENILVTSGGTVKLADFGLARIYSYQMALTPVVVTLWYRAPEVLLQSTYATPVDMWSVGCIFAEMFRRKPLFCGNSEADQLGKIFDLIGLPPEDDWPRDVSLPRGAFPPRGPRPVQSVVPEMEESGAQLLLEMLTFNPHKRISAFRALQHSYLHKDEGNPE
Chain of CDK4/Cyclin D1 (P24385 whole entry partner): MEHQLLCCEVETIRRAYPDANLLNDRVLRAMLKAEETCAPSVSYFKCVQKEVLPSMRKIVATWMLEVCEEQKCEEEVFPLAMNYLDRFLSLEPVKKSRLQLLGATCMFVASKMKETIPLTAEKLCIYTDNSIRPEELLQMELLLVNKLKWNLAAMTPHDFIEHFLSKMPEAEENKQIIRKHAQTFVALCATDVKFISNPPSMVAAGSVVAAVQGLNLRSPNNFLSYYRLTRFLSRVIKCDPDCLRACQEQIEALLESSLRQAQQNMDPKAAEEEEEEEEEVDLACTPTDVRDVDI

[3] = molecular target: CDK5/CDK5R1 (Homo sapiens, UniProt Q00535); assay: NanoBRET live-cell target engagement, CDK5-NanoLuc/CDK5R1 in HEK-293; format: binding; conditions: CDK5/CDK5R1, 10µM
Chain of CDK5/CDK5R1 (Q00535 whole entry): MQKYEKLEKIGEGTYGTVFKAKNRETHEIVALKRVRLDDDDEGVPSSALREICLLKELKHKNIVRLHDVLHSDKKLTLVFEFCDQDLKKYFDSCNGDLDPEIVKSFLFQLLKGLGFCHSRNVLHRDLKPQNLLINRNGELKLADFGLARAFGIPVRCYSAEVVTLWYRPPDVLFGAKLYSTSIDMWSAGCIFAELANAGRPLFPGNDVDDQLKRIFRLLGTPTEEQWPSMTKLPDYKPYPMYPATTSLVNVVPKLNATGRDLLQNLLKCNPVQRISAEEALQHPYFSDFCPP
Chain of CDK5/CDK5R1 (Q15078 whole entry partner): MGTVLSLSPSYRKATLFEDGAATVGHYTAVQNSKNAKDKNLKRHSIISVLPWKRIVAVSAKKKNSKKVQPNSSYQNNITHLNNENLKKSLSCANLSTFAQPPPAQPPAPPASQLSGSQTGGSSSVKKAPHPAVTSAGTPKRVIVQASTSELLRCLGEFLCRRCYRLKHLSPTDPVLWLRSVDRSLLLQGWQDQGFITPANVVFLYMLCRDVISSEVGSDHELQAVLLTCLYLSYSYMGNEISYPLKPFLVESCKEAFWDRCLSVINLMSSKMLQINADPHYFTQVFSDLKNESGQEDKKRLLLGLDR

[4] = molecular target: CDK7 (Homo sapiens, UniProt P50613); assay: NanoBRET live-cell target engagement, NanoLuc-CDK7 in HEK-293; format: binding; conditions: CDK7, 10µM
Chain of CDK7 (P50613 whole entry): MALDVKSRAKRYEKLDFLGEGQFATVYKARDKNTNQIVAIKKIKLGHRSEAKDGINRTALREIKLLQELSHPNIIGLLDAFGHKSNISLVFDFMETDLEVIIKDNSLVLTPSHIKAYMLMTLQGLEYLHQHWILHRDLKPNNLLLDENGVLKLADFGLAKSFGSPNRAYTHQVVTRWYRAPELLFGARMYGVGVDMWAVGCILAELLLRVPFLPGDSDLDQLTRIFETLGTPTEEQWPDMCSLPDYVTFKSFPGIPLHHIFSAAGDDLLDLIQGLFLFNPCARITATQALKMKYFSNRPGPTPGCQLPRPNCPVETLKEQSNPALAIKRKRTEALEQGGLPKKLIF

[5] = molecular target: CDK8/Cyclin C (Homo sapiens, UniProt P49336); assay: NanoBRET live-cell target engagement, NanoLuc-CDK8/Cyclin C in HEK-293; format: binding; conditions: CDK8/C, 10µM
[6] = molecular target: CDK9/Cyclin K (Homo sapiens, UniProt P50750); assay: NanoBRET live-cell target engagement, NanoLuc-CDK9/Cyclin K in HEK-293; format: binding; conditions: CDK9/K, 10µM
Chain of CDK9/Cyclin K (P50750 whole entry): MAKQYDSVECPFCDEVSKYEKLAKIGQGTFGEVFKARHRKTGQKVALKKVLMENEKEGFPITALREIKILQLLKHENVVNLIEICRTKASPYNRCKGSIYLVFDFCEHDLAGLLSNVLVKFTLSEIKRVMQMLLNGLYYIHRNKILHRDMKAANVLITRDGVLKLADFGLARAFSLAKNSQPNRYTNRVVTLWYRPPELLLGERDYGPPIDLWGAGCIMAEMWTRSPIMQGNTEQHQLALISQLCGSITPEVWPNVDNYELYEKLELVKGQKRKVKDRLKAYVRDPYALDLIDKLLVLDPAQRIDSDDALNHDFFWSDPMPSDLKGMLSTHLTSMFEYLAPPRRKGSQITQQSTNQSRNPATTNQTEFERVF
Chain of CDK9/Cyclin K (O75909 whole entry partner): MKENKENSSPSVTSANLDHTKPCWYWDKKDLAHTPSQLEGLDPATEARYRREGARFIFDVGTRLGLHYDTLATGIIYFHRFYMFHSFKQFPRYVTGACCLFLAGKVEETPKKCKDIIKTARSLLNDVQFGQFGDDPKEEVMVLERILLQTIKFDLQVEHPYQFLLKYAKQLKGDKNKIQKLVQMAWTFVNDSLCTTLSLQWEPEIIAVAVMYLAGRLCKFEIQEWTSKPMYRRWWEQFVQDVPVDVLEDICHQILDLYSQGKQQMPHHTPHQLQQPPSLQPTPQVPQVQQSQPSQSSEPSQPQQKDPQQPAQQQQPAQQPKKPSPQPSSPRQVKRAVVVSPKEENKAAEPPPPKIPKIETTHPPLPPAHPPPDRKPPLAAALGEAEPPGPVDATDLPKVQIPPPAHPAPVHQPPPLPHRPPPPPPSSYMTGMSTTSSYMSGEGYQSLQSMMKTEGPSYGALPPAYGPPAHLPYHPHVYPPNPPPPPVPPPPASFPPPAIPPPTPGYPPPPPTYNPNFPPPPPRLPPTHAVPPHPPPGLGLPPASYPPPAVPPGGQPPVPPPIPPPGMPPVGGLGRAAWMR

[7] = molecular target: T1, CDK11A/Cyclin L2 (Homo sapiens, UniProt Q9UQ88); assay: NanoBRET live-cell target engagement, CDK11A-NanoLuc/Cyclin L2 in HEK-293; format: binding; conditions: CDK11a/L2, 10µM
T1 sequence (Q9UQ88 1-783): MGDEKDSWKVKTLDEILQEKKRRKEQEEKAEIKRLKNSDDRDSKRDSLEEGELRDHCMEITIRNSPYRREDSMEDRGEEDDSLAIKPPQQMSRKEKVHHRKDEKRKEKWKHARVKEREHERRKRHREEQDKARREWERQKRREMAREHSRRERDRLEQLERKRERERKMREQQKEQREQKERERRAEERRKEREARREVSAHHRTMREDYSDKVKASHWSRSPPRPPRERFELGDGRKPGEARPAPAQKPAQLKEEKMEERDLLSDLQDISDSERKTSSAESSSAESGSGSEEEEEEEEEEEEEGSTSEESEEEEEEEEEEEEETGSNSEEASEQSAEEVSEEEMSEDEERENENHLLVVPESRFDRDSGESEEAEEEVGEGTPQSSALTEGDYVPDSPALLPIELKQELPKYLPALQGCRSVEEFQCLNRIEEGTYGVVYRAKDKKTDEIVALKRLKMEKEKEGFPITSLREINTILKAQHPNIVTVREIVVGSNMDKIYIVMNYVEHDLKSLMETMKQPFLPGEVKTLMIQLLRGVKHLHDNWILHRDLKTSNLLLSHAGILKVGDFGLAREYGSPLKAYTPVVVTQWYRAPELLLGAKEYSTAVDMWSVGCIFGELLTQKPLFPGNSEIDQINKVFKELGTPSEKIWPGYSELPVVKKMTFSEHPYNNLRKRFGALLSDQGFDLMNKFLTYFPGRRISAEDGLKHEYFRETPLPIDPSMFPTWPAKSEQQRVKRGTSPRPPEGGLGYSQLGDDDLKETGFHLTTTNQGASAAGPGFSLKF

[8] = molecular target: CDK11B/Cyclin L2 (Homo sapiens, UniProt P21127); assay: NanoBRET live-cell target engagement, CDK11B-NanoLuc/Cyclin L2 in HEK-293; format: binding; conditions: CDK11b/L2, 10µM
[9] = molecular target: CDK12/Cyclin K (Homo sapiens, UniProt Q9NYV4); assay: NanoBRET live-cell target engagement, CDK12-NanoLuc/Cyclin K in HEK-293; format: binding; conditions: CDK12/K, 10µM
Chain of CDK12/Cyclin K (Q9NYV4 1-1481 isoform Q9NYV4-2): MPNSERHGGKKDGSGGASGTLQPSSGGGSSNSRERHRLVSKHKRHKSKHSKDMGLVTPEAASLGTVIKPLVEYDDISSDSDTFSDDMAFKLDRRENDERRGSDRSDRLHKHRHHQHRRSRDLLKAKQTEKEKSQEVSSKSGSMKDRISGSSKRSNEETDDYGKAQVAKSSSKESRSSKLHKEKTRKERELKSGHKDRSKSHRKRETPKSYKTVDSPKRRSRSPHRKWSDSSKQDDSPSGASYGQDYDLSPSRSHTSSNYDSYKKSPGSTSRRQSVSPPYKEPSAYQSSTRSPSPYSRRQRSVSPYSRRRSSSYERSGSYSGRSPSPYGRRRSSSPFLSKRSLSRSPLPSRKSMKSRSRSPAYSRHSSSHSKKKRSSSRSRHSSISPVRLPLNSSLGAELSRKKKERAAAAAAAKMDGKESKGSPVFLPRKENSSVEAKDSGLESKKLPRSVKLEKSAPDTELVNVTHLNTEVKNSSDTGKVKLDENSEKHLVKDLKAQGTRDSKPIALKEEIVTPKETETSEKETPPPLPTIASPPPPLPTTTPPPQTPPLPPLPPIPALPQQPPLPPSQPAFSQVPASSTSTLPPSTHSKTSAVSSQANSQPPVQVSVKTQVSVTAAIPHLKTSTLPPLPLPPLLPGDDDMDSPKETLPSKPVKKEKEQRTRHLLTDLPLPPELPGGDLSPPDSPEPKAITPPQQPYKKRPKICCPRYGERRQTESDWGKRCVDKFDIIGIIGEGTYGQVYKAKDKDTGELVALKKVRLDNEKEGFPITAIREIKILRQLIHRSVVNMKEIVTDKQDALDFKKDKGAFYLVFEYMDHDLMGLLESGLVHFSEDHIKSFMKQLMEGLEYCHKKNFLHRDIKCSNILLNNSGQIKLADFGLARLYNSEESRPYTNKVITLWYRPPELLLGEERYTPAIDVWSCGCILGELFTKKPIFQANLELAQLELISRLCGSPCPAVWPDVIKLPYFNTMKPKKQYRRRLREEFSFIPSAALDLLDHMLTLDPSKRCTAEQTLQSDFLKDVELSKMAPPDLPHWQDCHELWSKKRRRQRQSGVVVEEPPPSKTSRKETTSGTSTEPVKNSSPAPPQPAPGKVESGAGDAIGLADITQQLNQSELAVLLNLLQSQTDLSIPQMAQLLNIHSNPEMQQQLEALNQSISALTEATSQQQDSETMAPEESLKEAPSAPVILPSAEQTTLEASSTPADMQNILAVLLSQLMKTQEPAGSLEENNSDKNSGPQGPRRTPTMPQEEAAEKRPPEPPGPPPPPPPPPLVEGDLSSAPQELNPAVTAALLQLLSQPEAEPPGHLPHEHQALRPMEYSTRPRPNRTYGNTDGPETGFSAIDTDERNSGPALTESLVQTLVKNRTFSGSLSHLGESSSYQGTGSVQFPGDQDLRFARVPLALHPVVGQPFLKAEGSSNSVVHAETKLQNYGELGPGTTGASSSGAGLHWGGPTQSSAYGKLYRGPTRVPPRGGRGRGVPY
Chain of CDK12/Cyclin K (O75909 whole entry partner): as the sequence (O75909 whole entry partner) above

[10] = molecular target: CDK13/Cyclin K (Homo sapiens, UniProt Q14004); assay: NanoBRET live-cell target engagement, CDK13-NanoLuc/Cyclin K in HEK-293; format: binding; conditions: CDK13/K, 10µM
[11] = molecular target: CDK15/Cyclin Y (Homo sapiens, UniProt Q96Q40); assay: NanoBRET live-cell target engagement, NanoLuc-CDK15/Cyclin Y in HEK-293; format: binding; conditions: CDK15/Y, 10µM
[12] = molecular target: CDK16/Cyclin Y (Homo sapiens, UniProt Q00536); assay: NanoBRET live-cell target engagement, CDK16-NanoLuc/Cyclin Y in HEK-293; format: binding; conditions: CDK16/Y, 10µM
[13] = molecular target: CDK17/Cyclin Y (Homo sapiens, UniProt Q00537); assay: NanoBRET live-cell target engagement, CDK17-NanoLuc/Cyclin Y in HEK-293; format: binding; conditions: CDK17/Y, 10µM
[14] = molecular target: CDK20/Cyclin H (Homo sapiens, UniProt Q8IZL9); assay: NanoBRET live-cell target engagement, NanoLuc-CDK20/Cyclin H in HEK-293; format: binding; conditions: CDK20/H, 10µM
[15] = molecular target: CDK19/Cyclin C (Homo sapiens, UniProt Q9BWU1); assay: NanoBRET live-cell target engagement, NanoLuc-CDK19/Cyclin C in HEK-293; conditions: 10µM
[16] = molecular target: CDK10/Cyclin L2 (Homo sapiens, UniProt Q15131); assay: NanoBRET live-cell target engagement, CDK10-NanoLuc/Cyclin L2 in HEK-293; conditions: 10µM
Chain of CDK10/Cyclin L2 (Q15131 whole entry): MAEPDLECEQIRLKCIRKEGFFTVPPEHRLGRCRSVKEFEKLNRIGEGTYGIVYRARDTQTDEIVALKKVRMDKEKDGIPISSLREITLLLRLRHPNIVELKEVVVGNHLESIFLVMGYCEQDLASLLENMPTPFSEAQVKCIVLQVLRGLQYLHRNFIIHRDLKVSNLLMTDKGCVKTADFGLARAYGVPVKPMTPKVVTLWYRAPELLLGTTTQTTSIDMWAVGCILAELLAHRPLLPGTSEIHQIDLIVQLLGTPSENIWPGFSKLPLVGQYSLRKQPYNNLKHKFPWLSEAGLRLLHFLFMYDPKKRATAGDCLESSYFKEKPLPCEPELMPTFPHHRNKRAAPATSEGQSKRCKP

[17] = average of replicates, read-out: Inhibition at 10µM (%) Average
[18] = read-out: Inhibition at 10µM (%) Replicate 1
[19] = read-out: Inhibition at 10µM (%) Replicate 2

CCN1CCN(Cc2ccc(Nc3ncc(F)c(-c4cc(F)c5nc(C)n(C(C)C)c5c4)n3)nc2)CC1 [Abemaciclib]
inhibition at 10 µM [1, 17]: 62.2%
inhibition at 10 µM [1, 18]: 62.2%
inhibition at 10 µM [1, 19]: 62.3%
inhibition at 10 µM [2, 17]: 99.6%
inhibition at 10 µM [2, 18]: 100%
inhibition at 10 µM [2, 19]: 99%
inhibition at 10 µM [3, 17]: 40.9%
inhibition at 10 µM [3, 18]: 38%
inhibition at 10 µM [3, 19]: 43.8%
inhibition at 10 µM [4, 17]: 63.4%
inhibition at 10 µM [4, 18]: 65.2%
inhibition at 10 µM [4, 19]: 61.7%
inhibition at 10 µM [5, 17]: 35.7%
inhibition at 10 µM [5, 18]: 27.2%
inhibition at 10 µM [5, 19]: 44.2%
inhibition at 10 µM [6, 17]: 84.3%
inhibition at 10 µM [6, 18]: 79.2%
inhibition at 10 µM [6, 19]: 89.3%
inhibition at 10 µM [7, 17]: 21.8%
inhibition at 10 µM [7, 18]: 19.9%
inhibition at 10 µM [7, 19]: 23.7%
inhibition at 10 µM [8, 17]: 27.7%
inhibition at 10 µM [8, 18]: 27.9%
inhibition at 10 µM [8, 19]: 27.6%
inhibition at 10 µM [9, 17]: 11.6%
inhibition at 10 µM [9, 18]: 10.3%
inhibition at 10 µM [9, 19]: 12.8%
inhibition at 10 µM [10, 17]: 7.8%
inhibition at 10 µM [10, 18]: 5.2%
inhibition at 10 µM [10, 19]: 10.4%
inhibition at 10 µM [11, 17]: 57.4%
inhibition at 10 µM [11, 18]: 57.3%
inhibition at 10 µM [11, 19]: 57.5%
inhibition at 10 µM [12, 18]: 86.3%
inhibition at 10 µM [12, 19]: 85.8%
inhibition at 10 µM [13, 17]: 83%
inhibition at 10 µM [13, 18]: 83%
inhibition at 10 µM [13, 19]: 82.9%
inhibition at 10 µM [14, 18]: 8.8%
inhibition at 10 µM [14, 19]: 28.5%
inhibition at 10 µM ([15]; read-out: Inhibition at 10µM (%) Average, CDK19/C, average of replicates): 40.7%
inhibition at 10 µM ([15]; read-out: Inhibition at 10µM (%) Replicate 1, CDK19/C): 41.9%
inhibition at 10 µM ([15]; read-out: Inhibition at 10µM (%) Replicate 2, CDK19/C): 39.5%
inhibition at 10 µM ([16]; read-out: Inhibition at 10µM (%) Average, CDK10/L2, average of replicates): 20.9%
inhibition at 10 µM ([16]; read-out: Inhibition at 10µM (%) Replicate 1, CDK10/L2): 21.5%
inhibition at 10 µM ([16]; read-out: Inhibition at 10µM (%) Replicate 2, CDK10/L2): 20.2%
